According to ChEMBL document CHEMBL5614465, “Discovery of the First Clinical Protein Degrader for the Treatment of Autoimmune Indications: Orally Bioavailable and Selective IRAK4 Degrader KT-474” (J Med Chem, 2024):

Target: Protein cereblon/Interleukin-1 receptor-associated kinase 4 (Homo sapiens, UniProt Q9NWZ3+Q96SW2)
Test: PROTAC activity at CRBN/IRAK4 in human HEK293T cells assessed as induction of IRAK4 degradation measured after 24 hrs by immunoblotting analysis
Type: cell-based

Sequence of Protein cereblon/Interleukin-1 receptor-associated kinase 4 (Q9NWZ3 whole entry): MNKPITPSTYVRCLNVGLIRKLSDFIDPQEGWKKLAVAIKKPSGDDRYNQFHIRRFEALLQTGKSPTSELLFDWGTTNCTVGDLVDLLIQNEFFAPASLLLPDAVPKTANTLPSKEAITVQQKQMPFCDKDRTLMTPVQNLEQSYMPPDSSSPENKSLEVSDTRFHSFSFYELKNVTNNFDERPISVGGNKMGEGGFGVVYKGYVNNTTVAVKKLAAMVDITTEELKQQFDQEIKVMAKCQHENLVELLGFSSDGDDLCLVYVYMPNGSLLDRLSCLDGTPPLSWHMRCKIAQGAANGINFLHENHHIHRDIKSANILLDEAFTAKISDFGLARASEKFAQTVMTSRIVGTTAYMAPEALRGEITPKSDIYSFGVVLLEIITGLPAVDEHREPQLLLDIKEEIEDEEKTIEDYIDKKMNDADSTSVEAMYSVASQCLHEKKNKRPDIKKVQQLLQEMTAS
Sequence of Protein cereblon/Interleukin-1 receptor-associated kinase 4 (Q96SW2 whole entry): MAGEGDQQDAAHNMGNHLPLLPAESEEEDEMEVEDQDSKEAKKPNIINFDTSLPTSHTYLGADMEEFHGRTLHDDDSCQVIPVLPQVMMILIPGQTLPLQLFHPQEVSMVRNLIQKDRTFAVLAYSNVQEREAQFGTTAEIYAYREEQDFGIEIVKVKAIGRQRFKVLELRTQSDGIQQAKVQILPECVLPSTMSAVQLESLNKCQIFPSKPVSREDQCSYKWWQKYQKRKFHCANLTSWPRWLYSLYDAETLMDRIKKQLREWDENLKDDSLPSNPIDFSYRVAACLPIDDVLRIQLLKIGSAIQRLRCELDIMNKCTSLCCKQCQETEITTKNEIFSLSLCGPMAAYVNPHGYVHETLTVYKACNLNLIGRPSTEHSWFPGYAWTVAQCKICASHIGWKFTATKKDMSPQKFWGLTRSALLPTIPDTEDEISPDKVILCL

CC(C)Nc1cc(-n2ccc3cc(C#N)cnc32)ncc1C(=O)N[C@H]1CC[C@H](C(=O)NCCOCCNC(=O)COc2cccc3c2C(=O)N(C2CCC(=O)NC2=O)C3=O)CC1 (stereo partly specified)
DC50: 405 nM
